Reference: PMC4452637, “Identification of positron emission tomography (PET) tracer candidates by prediction of the target-bound fraction in the brain” (EJNMMI Research, 2014)

Experiments:
5HT1b = target: 5HT1b; design: method as in ref 10 (Additional file 1); details: literature value; ref 10 (Additional file 1); cited from earlier work
GABA = details: non-functioning tracer: corresponds to arbitrarily assigned low ftb 0.09, not from PET data; blank in Table S1
Sigma [1] = target: Sigma; design: method as in ref 77 (Additional file 1); details: literature value; ref 77 (Additional file 1); cited from earlier work
[2] = Unbound fraction in brain homogenate (fu,brain); Vu,brain calculated from it with pH-partition model; details: calculated from reported fu,brain and tracer pKa with pH-partition model (tracers with fu,brain tabulated, footnote h of Table S1)
Description: The unbound volume of distribution in the brain (Vu,brain) describing the extent of non-specific partitioning was determined for 31 tracers using a previously described high-throughput brain slice method [11].

[3] = design: method as in ref 10 (a number printed in a supplementary file, which may have a reference list of its own: not looked up in the article's list); details: unbound fraction in homogenized brain tissue, reported; cited from earlier work
Sigma [4] = assay: PET imaging of specific target binding (BPND, tracer functionality); format: in vivo; details: non-functioning tracer: corresponds to arbitrarily assigned low ftb 0.09, not from PET data; blank in Table S1
D1 = target: D1; design: method as in ref 52, 53 (Additional file 1); details: literature value; 53 (Additional file 1); cited from earlier work
D2/D3 = target: D2/D3; design: method as in ref 59 (Additional file 1); details: literature value; ref 59 (Additional file 1); cited from earlier work
nAChr a4b2 = target: nAChr a4b2; design: method as in ref 2 (Additional file 1); details: literature value; ref 2 (Additional file 1); cited from earlier work
5HT2a = target: 5HT2a; design: method as in ref 7 (Additional file 1); details: literature value; ref 7 (Additional file 1); cited from earlier work
5HT1a = target: 5HT1a; design: method as in ref 50 (Additional file 1); details: literature value; ref 50 (Additional file 1); cited from earlier work

Cc1ccc(N2CCN(C)CC2)c2oc(C(=O)Nc3ccc(N4CCOCC4)cc3)cc(=O)c12 [[^11C]AZ10419369]
Kd (5HT1b): 0.37 nM

[11CH3]N1C(=O)CN=C(c2ccccc2)c2cc(Cl)ccc21 [[^11C]Diazepam]
BP ND (GABA): 0.1

CCCN(CCC)CCc1ccc(OC)c(OCCc2ccccc2)c1 [[^11C]NE100]
Kd (Sigma [1]): 1.2 nM

CCCN(CCC)CCc1ccc(O[11CH3])c(OCCc2ccccc2)c1 [[^11C]NE100]
V u,brain [2]: 96 mL/g brain
fu,brain [3]: 0.03
BP ND (Sigma [4]): 0.1

CN1CCc2cc(Cl)c(O)cc2[C@@H](c2cccc3ccoc23)C1 [[^11C]NNC112]
Kd (D1): 0.18 nM

CCCN1CCO[C@@H]2c3cc(O)ccc3CCC21 (some centres unmarked) [[^11C]PHNO]
Kd (D2/D3): 0.56 nM

Fc1ncccc1OC[C@@H]1CCN1 [[^18 F]2-FA-85380]
Kd (nAChr a4b2): 0.145 nM

O=C(c1ccc(F)cc1)C1CCN(CCn2c(=S)[nH]c3ccccc3c2=O)CC1 [[^18 F]Altanserin]
Kd (5HT2a): 0.32 nM

COc1ccccc1N1CCN(CCN(C(=O)c2ccc(F)cc2)c2ccccn2)CC1 [[^18 F]MPPF]
Kd (5HT1a): 3.3 nM
